Experimental data: patent US8535639B2, “Trifunctional imaging agent for monoclonal antibody tumor-targeted imaging” (The United States of America, as represented by the …, priority 2007, dated 2013)

Biological target: T1, EGFR-expressing A431 cells (Homo sapiens, UniProt P00533)
T1 construct: host or cells: A431 cells
Assay: Confocal fluorescence microscopy binding
Type: cell-based
Conditions: 10 ug/mL, 2 hr at 37° C.
Description: A431, SKOV3, and NIH3T3 cells were obtained from ATCC (Manassas, Va.). The NIH3T3 cells were transfected with HER2 genes (3T3/HER2+), in order to overexpress HER2 receptors (Di Fiore et al., Science 1987, 237, 178-182). All of the cell lines were grown at 37° C. in the presence of 5% CO2 in DMEM medium supplemented with 1% L-glutamine, and 5% FBS. For the confocal fluorescence microscopy experiments cells were plated in Lab-Tek chambered slides (#178599 Nalge Nunc) at an appropriate dilution and allowed to attach overnight at 37° C. prior to treatment. […] The individual cell lines seeded on chambered slides with 60-80% confluency were incubated for 2 hr at 37° C. in the dark. After incubation the cell culture medium was removed and slides were washed three times with PBS (pH=7.4) and immediately fixed in 4% paraformaldehyde prepared in PBS (pH=7.4) for 5 min at room temperature. Fluorescent mounting medium (S3023, DakoCytomation) was added at the time the slide was covered with a cover glass to stabilize the fluorophores before and during confocal microscopy. […] Fluorescence (Cy5.5 or Cy7) and DIC images were collected simultaneously using a 63x Plan-Apochromat 1.4 NA oil immersion objective and a long pass 650 nm emission filter. […]

T1 sequence (P00533 25-1210): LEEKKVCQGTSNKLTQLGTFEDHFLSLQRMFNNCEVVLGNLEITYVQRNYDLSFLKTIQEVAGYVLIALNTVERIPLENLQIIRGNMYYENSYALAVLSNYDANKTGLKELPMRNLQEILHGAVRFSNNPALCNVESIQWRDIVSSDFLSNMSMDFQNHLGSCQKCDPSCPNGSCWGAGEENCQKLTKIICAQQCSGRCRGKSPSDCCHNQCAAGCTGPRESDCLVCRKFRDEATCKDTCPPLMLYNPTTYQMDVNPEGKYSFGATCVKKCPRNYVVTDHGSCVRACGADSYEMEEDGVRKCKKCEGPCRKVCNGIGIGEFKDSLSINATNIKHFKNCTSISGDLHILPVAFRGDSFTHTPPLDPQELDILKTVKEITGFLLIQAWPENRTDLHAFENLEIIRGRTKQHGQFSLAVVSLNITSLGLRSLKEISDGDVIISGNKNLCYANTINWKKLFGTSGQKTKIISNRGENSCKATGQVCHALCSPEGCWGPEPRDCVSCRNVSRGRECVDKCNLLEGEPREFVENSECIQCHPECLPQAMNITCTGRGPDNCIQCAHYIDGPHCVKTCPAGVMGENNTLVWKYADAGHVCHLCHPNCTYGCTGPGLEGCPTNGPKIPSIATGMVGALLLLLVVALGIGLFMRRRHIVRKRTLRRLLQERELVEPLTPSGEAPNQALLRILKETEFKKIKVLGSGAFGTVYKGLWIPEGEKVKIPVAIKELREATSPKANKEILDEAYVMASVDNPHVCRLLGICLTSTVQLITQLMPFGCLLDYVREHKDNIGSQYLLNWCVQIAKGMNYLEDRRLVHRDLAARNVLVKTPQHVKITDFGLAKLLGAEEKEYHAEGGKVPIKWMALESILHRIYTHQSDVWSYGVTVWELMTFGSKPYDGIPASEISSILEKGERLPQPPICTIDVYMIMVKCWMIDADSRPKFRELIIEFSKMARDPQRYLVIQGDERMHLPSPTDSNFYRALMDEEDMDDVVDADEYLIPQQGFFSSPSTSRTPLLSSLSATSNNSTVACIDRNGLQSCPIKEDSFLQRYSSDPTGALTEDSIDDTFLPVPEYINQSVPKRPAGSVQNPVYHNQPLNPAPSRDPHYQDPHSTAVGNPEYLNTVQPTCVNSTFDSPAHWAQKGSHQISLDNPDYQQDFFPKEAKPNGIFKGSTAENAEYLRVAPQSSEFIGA

## CC[N+]1=C(/C=C/C=C/C=C/C=C2/N(CCCCCC(=O)N[C@@H](CCCCNC(=O)C3CCC(CN4C(=O)CC(SCCCC(=N)NC)C4=O)CC3)C(=O)Nc3ccc(C[C@H](CN(CC(=O)O)[C@H]4CCCC[C@@H]4N(CC(=O)O)CC(=O)O)N(CC(=O)O)CC(=O)O)cc3)c3ccc(S(=O)(=O)O)cc3C2(C)C)C(C)(C)c2cc(S(=O)(=O)[O-])ccc21 (stereo partly shown) [imaging agent 11]
  binding / fluorescent labeling: specifically labels
